The target in the assay is T1, C-X-C chemokine receptor type 2 (Homo sapiens, UniProt P25025).
T1 sequence (P25025 whole entry): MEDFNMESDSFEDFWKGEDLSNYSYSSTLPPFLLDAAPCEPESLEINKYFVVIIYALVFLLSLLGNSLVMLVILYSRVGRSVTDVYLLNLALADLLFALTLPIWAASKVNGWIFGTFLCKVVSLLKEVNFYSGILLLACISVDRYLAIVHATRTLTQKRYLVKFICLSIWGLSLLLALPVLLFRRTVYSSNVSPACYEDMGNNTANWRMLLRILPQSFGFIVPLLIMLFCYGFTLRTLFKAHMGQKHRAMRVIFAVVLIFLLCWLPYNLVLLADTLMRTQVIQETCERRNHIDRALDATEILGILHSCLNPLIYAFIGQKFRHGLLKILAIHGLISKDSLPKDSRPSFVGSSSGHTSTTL
The assay is described as follows: In Vitro Inhibition of Intracellular Calcium Release. As to the method: Briefly, human neutrophils were suspended in HBSS− (without Ca2+ and Mg2+) containing 10 mM HEPES and FLIPR Calcium 3 dye (3.1×10^7 cells in total volume 1.7 mL). Cells were aliquoted (200 μL of the cell suspension per tube, 8 tubes total) and 2 μL of compound 9 (with appropriate dilutions) were added to each of 6 tubes. The tested concentrations of compound 9 were 156 nM, 312 nM, 625 nM, 1250 nM, 2500 nM and 5000 nM. As controls, 2 μL of DMSO (1% final concentration) were added to 2 other tubes. Cells were incubated for 30 min at 37° C. […] The cell suspension was aliquoted into a 96-well Reading Plate (Corning) in a volume of 90 μL (10^5 cells/well). […] After 15 sec of reading the basal level of fluorescence by FlexStation II, 10 μL of GROα or HBSS− were automatically transferred from the Compound Plate into the Reading Plate (final concentration of GROα was 25 nM). Changes in fluorescence were monitored (λex=485 nm, λem=525 nm) every 5 s for 240 to 500 s at room temperature.The maximum change in fluorescence, expressed in arbitrary units over baseline (Max-Min), was used to determine the GROα response. The effect of each compound on the GROα response was normalized and expressed as a percent of the DMSO control, which was designated as 100% response. […]

`CC1(C)OB(c2ccccc2CNc2ccc(C(=O)Nc3ccc(F)cc3)cn2)OC1(C)C` [USRE47740, Compound 7]: the IC50 was determined as 1500 nM.

(Values after BindingDB's records for patent USRE47740 (Syntrix Biosystems Inc., 2019).)
